Laboratory results as given in patent publication US9795585B2, “Methods of using L-butylphthalide for the prevention and treatment of cerebral ischemia disease” (priority 2004, dated 2017).

Legend:
[1] = test system: cerebral edema induced by cerebral artery ligation in rats; test: Cerebral edema induced by ligation of right middle cerebral artery; assay type: in vivo, male Wistar rats; conditions: 40 and 80 mg/kg oral 15 minutes after ligation; sacrificed after 24 hours
Protocol: Experimental Animals: the same as Example 1. Experimental Equipments: Oxygen analyzer. Experimental Methods: Cerebral edema was induced by the ligation of right middle cerebral artery of rats. After 15 minutes, dl-, d-, and l-NBP (40 and 80 mg/kg) were orally administered. The rats were sacrificed after 24 hours. The forebrain was removed, and the cerebral hemispheres on the left and right side were weighed. Dry weight was obtained by baking for 24 hours under 100° C. The weight of water in the brain tissue was thus calculated by subtracting of dry weight from wet weight. Then, the tissues was nitrified for 4 hours, and pH was adjusted by using HCl. Next, the ion selective electrode was connected onto the oxygen analyzer, and the concentrations of Na^+ and K^+ in the brain tissue were measured.

[2] = test system: permanent cerebral ischemic rats; test: Behavioral disorder and cerebral infarct area in permanent cerebral ischemic rats (FeCl3 on middle cerebral artery); assay type: in vivo, Wistar rats
Protocol: Experimental Animal: The same as Example 1. Experimental Equipments: COOLPIX955 digital camera, 722 grating spectroscope, XHF-1 high-speed disperser, YKH-II liquid high-speed mixer, WZ-50C2 micro infusion pump. Experimental Methods: Wistar rats were anesthetized by intraperitoneally injecting 12% chloral hydrate in 350 mg/kg, and fixed in lateral decubitus position. The skin at the midpoint on the line from exterior auditory canal to canthus was cut. The muscle was separated layer by layer to expose zygomatic arch and the squamous part of temporal bone. The zygomatic arch was scissored and then placed under an operating microscope. A window of 2 mm diameter was drilled by using a dentistry drill at a position of 2 mm under the anterior joint between zygomatic arch and the squamous part of temporal bone, so as to expose the middle cerebral artery. A little piece of filter paper was applied onto the middle artery, and 10 μl of 50% FeCl3 aqueous solution was dripped onto the filter paper. The filter paper was removed after 30 min, and washed with physiological brine. Two to three drops of penicillin (1.6×10^5 U/mL) were added so as to prevent infection of the cut. Then the cut was sutured layer by layer.

normal rats = assay type: in vivo, Male wistar rats; conditions: 15 and 30 mg/kg oral; 30 minutes after administration
Protocol: Experimental Animals: Male wistar rats.
Experimental Equipments: SXP operating microscope, 62TZ-V model high frequency electrotome, solid positioner, Diamond Electro-Tech chemical microsensor 1231, two channel physiological parameter recorder.
Experimental Methods: • (1) dl-, d-, and l-NBP (15 and 30 mg/kg) and the vehicle were orally administered to the normal rats, and the changes of cerebral blood flow at different time after the administration were measured. • (2) ligation of cerebral artery was conducted on rats according to the method of Tamura. Oral administration was performed at 10 min after the operation. The rats were divided into 9 groups, which were normal group, pseudo-operation group, vehicle control group, and groups of dl-, d-, and l-NBP (15 and 30 mg/kg).

[3] = test system: cerebral injury-induced cerebral ischemia in rats; test: Neural symptoms induced by cerebral injury in rats; assay type: in vivo, male Wistar rats; conditions: 50 mg/kg oral 5 minutes after cerebral injury; scored after 24 hours; vs vehicle control
Protocol: Experimental Animals: male Wistar rats
Experimental Methods: Cerebral injury in rats was caused by allowing a cone-shaped metal object weighing 220 g to freely fall from a position of 30 cm height and to strike the skull cap behind the left coronal suture. dl-, d-, and l-NBP (50 mg/kg) and the vehicle (control group) were orally administered after 5 minutes, and the behavioral changes were scored after 24 hours.

[4] = test system: focal cerebral ischemia in rats; test: Memory disorder induced by focal cerebral ischemia (shuttle box, artery ligation by method of Tamura); assay type: in vivo, male Wistar rats; conditions: 15 and 30 mg/kg oral 15 min after operation; observed after 24 hours; vs vehicle control
Protocol: Experimental Animal: The same as Example 1. Experimental Equipment: Shuttle box. Experimental Methods: • 1. Rats were trained to acquire learning and memory; • 2. Artery ligation: Artery ligation was conducted on rats according to the method of Tamura. After 24 hours, the experiment of learning as in step (1) was repeatedly conducted on rats. • 3. Grouping and administration: the rats were divided into 9 groups, which were normal group, pseudo-operation group, ischemia control group, and groups of dl-, d-, and l-NBP (15 and 30 mg/kg). The rats were orally administered at 15 min after the operation, and the changes of latency of active and passive avoidance response were observed after 24 hours.

[5] = test system: cerebral ischemia-reperfusion rats; test: Behavioral disorder and cerebral infarct area in cerebral ischemia-reperfusion rats (MCAO by nylon suture, 1.5 h); assay type: in vivo, male Wistar rats
Description: Experimental Animal: The same as Example 1
Experimental Equipments: The same as Example 7
Experimental Methods: The rats were anesthetized, and fixed in lateral decubitus position. Under the operating microscope, a midline neck skin incision was made to expose the left common cartotid artery. The surrounding nerves and fascia from the bifurcation of common carotid artery to the vascular of basis cranii were removed.
The internal carotid artery was then separated and carefully separated free from vagus nerve. Pterygopalatine artery was ligated at the root of the internal carotid artery. A 6# needle for injection containing 3# nylon suture (diameter of 0.285 mm) was punctured into the free end of the external carotid artery, advancing the nylon suture into the blood vascular. The needle was carefully withdrawn, and the nylon suture was guided into the internal carotid artery from the distal end of the external carotid artery up till to Willis ring, so as to effectively block the middle cerebral artery.
Depending on the body weight, the distance from the inserted nylon suture to the bifurcation of common carotid artery was 18 to 20 mm. The free end of the external carotid artery and the nylon suture therein were ligated together, in order to prevent bleeding. The muscle and the skin were then sutured layer by layer, and penicillin was dropped to prevent infection. To effectively block the middle cerebral artery, the tip of the nylon suture was made round by burning with the flame, and coated with 0.1% of poly-L-lysine. The nylon suture was baked in a 60° C. oven for 1 hour.
Due to the ability of poly-L-lysine to binding the cell and the protein to the plastic surface, and thus allow the negative charged nylon suture changing into a positive charged one and attract the anion ionic part of the endothelial cell, the nylon suture was closely bond to the endothelial surface, so as to prevent the leakage of the blood from the surrounding of the suture. Only the internal carotoid artery was separated from the animals of pseudo-operation group.
At 1.5 hours after the initiation of MCAO, the nylon suture within the lumen of the internal carotoid artery was carefully withdrawn, and the internal carotoid artery was allowed to reperfusion. The rats were then placed back into the cage.

[6] = test system: ischemic brain of decapitated mice; test: Ischemic cerebral metabolism of energy induced by decapitation of mice; assay type: in vivo, KunMing mice; conditions: NBP 50 and 100 mg/kg oral, sodium Phenobarbital 225 mg/kg ip.; decapitated 30 minutes after administration; 15 seconds ischemia; vs control group
Protocol: Experimental Animals: KunMing mice.
Test drug: injectable L-butylphthalide was formulated into an emulsion with Tween-80.
Experimental Methods: KunMing mice of 10 to 22 g were divided into 8 groups with 10 mice per group. dl-, d-, and l-NBP (50 and 100 mg/kg/d), sodium Phenobarbital (225 mg/kg ip.) and the vehicle were orally administered. Thirty minutes after administration, the mice were decapitated.
The time between the decapitation and homogenation, which was 15 seconds, was regarded as cerebral ischemic time. Centrifugation and isolation were conducted by the method of Folbergrova, and the contents of lactic acid, ATP and PCr were determined by enzymological method.

[7] = test system: cerebral apoplexy in spontaneous hypertension rats; test: Cerebral apoplexy in salt-loaded spontaneous hypertensive rats; assay type: in vivo; conditions: 25 and 50 mg/kg/d oral
Protocol: Experimental Animals: spontaneous hypertensive rats of 6 weeks old. Experimental Methods: Spontaneous hypertensive rats of 6 weeks old were divided into 8 groups with 10 rats per group. 0.8 to 0.9 g per day of common salt was administered starting from week 6. […] The scores of neurological deficit and the time of death were recorded.

[8] = 24 hours after intravenous injection

Question: What does the source list for `CCCC[C@H]1OC(=O)c2ccccc21` [d-NBP, dextro-butylphthalide]?
Answer: content of K+ in the brain [1]: no significant effect; content of Na+ in the brain [1]: no significant effect; content of water in the brain [1]: no significant effect; cerebral infarct area (effect in words) ([2]; 2.5 mg/kg, tendency of reducing): not significant; reduction of cerebral infarct area ([2]; first of three doses, vs model control group): 27.2%; decrease of neurological deficit scores ([2]; high dose, i.v., 24 hours after administration): 28.1%; ED30 (neurological deficit scores) ([2]; i.v., 24 hours after administration): 12.4 mg/kg; neurological deficit scores (effect in words) ([2]; intravenous injection, vs model control group): improvement; decrease of neurological deficit scores ([2]; low dose, i.v., 24 hours after administration): 17.2%; decrease of neurological deficit scores ([2]; moderate dose, i.v., 24 hours after administration): 21.9%; reduction of cerebral infarct area ([2]; second of three doses, vs model control group): 32.7%; reduction of cerebral infarct area ([2]; third of three doses, vs model control group): 39.9%; ED40 (cerebral infarct area) ([2]; vs model control group): 10.3 mg/kg; cerebral blood flow rate in normal rats (normal rats): no such effects; neural symptoms (behavioral changes scored) [3]: no significant effect; times of active avoidance [4]: not observed; neurological deficit scores (effect in words) [5, 8]: improvement; potency on neurological deficit scores compared among l, dl and d-NBP [5, 8]: no significant difference; cerebral infarct area (effect in words) ([5]; intravenous administration, effect increases with dose): significantly reduce; content of ATP in the brain [6]: no such significant effect; content of PCr in the brain [6]: no such significant effect; content of lactic acid in the brain [6]: no such significant effect; preventive and therapeutic effect on cerebral apoplexy (overall) [7]: not significant

Question: Which results are given for `CCC1(c2ccccc2)C(=O)NC(=O)NC1=O` [sodium Phenobarbital]?
Answer: content of ATP in the brain [6]: increased; content of PCr in the brain [6]: increased; content of lactic acid in the brain [6]: significantly decreased
